Measured values as given in patent publication US11795510B2, “Identification of epigenomic reprogramming in cancer and uses thereof” (The Johns Hopkins University, priority 2016, dated 2023).
Entries after “also recorded” stand apart in the source; their conditions may differ.

Experiments:
Type in all cases: cell-based, human
[1] = system: global chromatin modifications in peritoneal subclone (A38Per), normal cells (HPDE, fibroblast) and local-regional PDACs; assay: Western blots of histone modifications, peritoneal subclone, normal cells and local-regional PDACs; settings: peritoneal subclone
Protocol: Histones were acid extracted as described and western blots performed on 3.5 ug histones, which were checked by Ponceau stains prior to western blot to ensure equal loading. Densitometry was performed with ImageJ software. RNA was extracted with Trizol reagent (Life Technologies) and isopropanol precipitated. Genomic DNA was purified with MasterPure DNA extraction reagents (Epicenter). Immunohistochemistry, H&E staining, and immunofluorescence on formalin-fixed, paraffin-embedded (FFPE) tissue microarray sections (TMAs) were performed according to standard procedures.
RNAi experiments were performed with siRNA transfections (Oligofectamine, Life Technologies) using negative control siRNA (Sigma, SIC001) and pre-designed siRNA oligonucleotides against indicated genes in parallel (Sigma, PGD: SASI_Hs02 00334150, CDH2: SASI_Hs01_00153995, TOP2B: SASI_Hs02_00311874). siRNAs against mutant KRAS^G12V (CUACGCCAACAGCUCCAAC) (SEQ ID NO:1) were custom designed. Cells were incubated with siRNAs for 4 days after transfection and harvested. For drug treatments in 2-D, cells were grown to 70-80% confluency and treated for 3 days with 250 uM 6AN or DMSO negative control.

A38Lg compared to A38Per = assay: MTT cell viability assay
Protocol: (§1) Tissue samples and cell lines were previously collected from PDAC patients by rapid autopsy, sequenced-validated, and monitored for mycoplasma as previously described. Low passage (2-17) rapid autopsy cell lines were cultured at 37° C. in DMEM with 10% fetal bovine serum (FBS, Gibco). For MTT assays, 15,000 cells/well were plated into 96 well plates in triplicate, treated 12 hours later, and assayed after 24 hr (glucose responses) or 6 days (chemotherapy) with CellTiter96 (Promega). For glucose response assays, nutrient-deplete DMEM (no glucose, glutamine, pyruvate, or serum) was used with addition of glucose as indicated. For glucose-dependent oxidative stress analysis, cells plated in triplicate and grown to 80% confluence followed by incubation in nutrient-deplete DMEM containing 10% dialyzed FBS with or without 10 mM glucose and 1 mM H2O2 for 24 hours. Cells were then washed with PBS, trypsinized, and viable cells counted with a hemocytometer. Glucose uptake and lactate secretion were measured with a YSI 7100 Bioanalyzer as described in the supplementary methods. For ^13C-1,2 glucose tracing and steady state metabolite profiling, the Q Exactive MS (QE-MS; Thermo Scientific) coupled to liquid chromatography (LC Ultimate 3000 UHPLC) was used for metabolite separation and detection as previously described. Detailed conditions are provided in the supplementary methods.

[2] = system: distant metastatic subclones; assay: Glucose-dependent oxidative stress analysis (viable cell counts), distant metastatic subclones; settings: 1 mM H2O2, 24h, glucose not present in the media
Protocol: as §1

[3] = system: local-regional PDAC samples; assay: Glucose-dependent oxidative stress analysis (viable cell counts), local-regional PDAC; settings: 1 mM H2O2, 24h, with or without 10 mM glucose
Protocol: as §1

normal HPDE cells = assay: Glucose-dependent oxidative stress analysis (viable cell counts), HPDE; settings: 1 mM H2O2, 24h, with or without 10 mM glucose
Protocol: as §1

Nc1ccn([C@@H]2O[C@H](CO)[C@@H](O)C2(F)F)c(=O)n1 [gemcitabine, Gemcitabine]
induction of loss of methylation or gain of acetylation (reprogrammed histone modifications) by chemotherapy [1]: did not induce | cell viability (MTT) under gemcitabine (A38Lg compared to A38Per; assayed after 6 days): highly resistant; also recorded: completely resistant

OO [H2O2]
normalized cell counts after H2O2 [2]: sensitive to H2O2 when glucose was not present | normalized cell counts after H2O2 [3]: resistant to H2O2 irrespective of glucose availability | cell viability (MTT) under H2O2-mediated oxidative stress (A38Lg compared to A38Per): highly resistant; also recorded: remarkably resistant | normalized cell counts after H2O2 (normal HPDE cells): sensitive to H2O2 under either glucose condition
